Test results as given in patent US5928915A, “CHO cell sialidase by recombinant DNA technology” (Genentech, Inc., priority 1997, dated 1999).

How the values were obtained:
CHO cell sialidase [1] = molecular target: T1, CHO cell sialidase (Cricetulus griseus, UniProt Q64393); assay: Sialidase activity toward gangliosides and colominic acid (thiobarbiturate assay); assay type: biochemical, Chinese hamster; parameters: key to Relative Activity: NR: no reaction products detected; conditions: for ganglioside hydrolysis in words: cholic acid as solubilizing agent; for Relative Activity: substrate 4 mM, initial rate, pH 6.0, cholic acid (0.05%) with lipid substrates, α-2,3 sialyllactose = 100
T1 construct: The sialidase described was purified from the cell culture fluid of a single production cell line (CHO 14.16); endogenous in cells; host or cells: CHO 14.16 cells (purified from the cell culture fluid)
T1 sequence (Q64393 whole entry): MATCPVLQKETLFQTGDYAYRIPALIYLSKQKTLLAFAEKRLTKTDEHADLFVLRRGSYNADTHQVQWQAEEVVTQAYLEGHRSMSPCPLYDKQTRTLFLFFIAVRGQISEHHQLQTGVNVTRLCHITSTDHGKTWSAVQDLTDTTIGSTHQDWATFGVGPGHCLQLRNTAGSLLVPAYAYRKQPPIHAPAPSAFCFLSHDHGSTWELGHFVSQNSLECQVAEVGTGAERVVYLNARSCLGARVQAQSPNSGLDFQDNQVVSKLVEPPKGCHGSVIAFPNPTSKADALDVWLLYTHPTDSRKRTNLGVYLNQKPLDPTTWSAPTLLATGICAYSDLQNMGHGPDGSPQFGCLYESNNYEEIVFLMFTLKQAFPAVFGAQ
Protocol: (§1) Sialidase assays with natural substrates: When natural substrates are tested with the purified enzyme, the amount of released sialic acid is measured using the thiobarbituric acid assay as modified by Uchida [Uchida et al. J. Biochem., 82:1425 (1977)] using sialic acid as standard. The amount of sialic acid in control samples, which include a complete assay mixture incubated without added enzyme is subtracted from each determination. All samples are cleared by centrifugation (1,000×G, 10 min) prior to determining the absorbance at 540 nm.
Some gangliosides are degraded by the sialidase (TABLE III), although these substrates require the presence of cholic acid as a solubilizing agent in the assay for optimal activity.

CHO cell sialidase [2] = molecular target: T1, CHO cell sialidase; assay: Sialidase kinetic constants with soluble sialylglycoconjugate substrates; assay type: biochemical, Chinese hamster; conditions: for substrate cleavage in words: purified enzyme
Protocol: Fluorescent sialidase assays: Standard assay conditions for monitoring the enzyme activity during purification using the fluorescent substrate analog are: 1.3 mM 4-MUNeu5Ac, 50 mM phosphate buffer, pH 6.8, 0.3 mg bovine serum albumin and varying amounts of enzyme in a total volume of 30 μl. After addition of enzyme the samples are incubated at 37° C. in a shaking water bath for 5 minutes. The reaction is terminated and the fluorescence of the liberated umbelliferone is enhanced by the addition of 2 ml of 80 mM glycine-carbonate buffer, pH 9.7. Quantification of the product is made by measuring the fluorescence of the samples with excitation at 365 nm and emission at 450 nm using a standard of 4-methyl umbelliferone. A unit of enzyme activity is defined as a μmol/min of sialic acid liberated.
as §1
Enzyme kinetic parameters: Assay conditions (time and added enzyme) are modified for each substrate so that initial reaction rates are measured. Kinetic parameters are obtained from double reciprocal plots of the substrate saturation curves [Segel, I. H. John Wiley, New York, Enzyme Kinetics, 18 (1975)].
Substrate specificity: Several classes of sialyl glycoconjugates were tested as substrates, TABLE II. […] Transferrin is isolated from human serum and contains only 2,6 linked sialic acid residues [Baenziger, J. U. The Plasma Proteins 2nd Ed. (Putnam, F. W., ed.) 272-398, Academic Press, New York (1984)].

CHO cell sialidase [3] = molecular target: T1, CHO cell sialidase; assay: Inhibition of CHO cell sialidase (competitive inhibitor study); assay type: biochemical, Chinese hamster
[4] = molecular target: cytosolic sialidase from rat muscle; conditions: cytosol, previously reported data, unit from footnote c; cited from earlier work
[5] = tested on: lysosomal sialidase (fibroblasts); conditions: cited from earlier work
[6] = tested on: plasma membrane sialidase (adenovirus transformed kidney cells); conditions: cited from earlier work

Molecule	ganglioside hydrolysis in words (CHO cell sialidase [1])	Relative Activity (CHO cell sialidase [1])	substrate cleavage in words (CHO cell sialidase [2])	further results
II^3 NeuAc-GgOse4 Cer [GM1]	not substrates	NR		
II^3 (NeuAc)2 -GgOse4 Cer [GD1b]	not substrates	NR		
CC(=O)N[C@H]1[C@H]([C@H](O)[C@H](O)CO)O[C@@](O[C@H]2[C@@H](O)[C@@H](CO)O[C@@H](O[C@H]3[C@H](O)[C@@H](O)C(O)O[C@@H]3CO)[C@@H]2O)(C(=O)O)C[C@@H]1O (some centres unmarked) [sialyl lactose]			readily cleaved	
Transferrin: isolated from human serum and contains only 2,6 linked sialic acid residues			cleaved much more slowly than that bound to recombinant human deoxyribonuclease I	Vmax (CHO cell sialidase [2]; apparent, standard assay conditions, average of duplicates, relative error about 10%): 2 µmol/min/mg; Km values compared (in words) (CHO cell sialidase [2]; transferrin versus deoxyribonuclease I): nearly identical
IV^3 NeuAc, II^3 NeuAc-GgOse4 Cer [GD1a]	hydrolyzed at comparable rates	21%		
CC(=O)N[C@H]1[C@H]([C@H](O)[C@H](O)CSc2ccc(N=[N+]=[N-])cc2[N+](=O)[O-])OC(C(=O)O)=C[C@@H]1O [9-PANP-Neu5Ac2en, 9-S-(4'-azido-2'-nitro-phenyl)-5-acetamido-2,6 anhydro-9-thio-2,5,9-trideoxy-D-glycero-D-galacto-non-2-enonic acid]				inhibition in words (CHO cell sialidase [3]): weakly inhibited
II^3 NeuAc-LacCer [GM3]	hydrolyzed at comparable rates	29%		
CC(=O)N[C@H]1[C@H]([C@H](O)[C@H](O)CO)O[C@@](O[C@H](CO)[C@@H](O)[C@@H]2OC(O)(C(=O)O)C[C@H](O)[C@H]2NC(C)=O)(C(=O)O)C[C@@H]1O (some centres unmarked) [Sialic acid dimer]			substrates for the enzyme	
CC(=O)N[C@H]1[C@H]([C@H](O)[C@H](O)CO)O[C@@](O[C@H]2[C@@H](O)[C@@H](CO)O[C@@H](O[C@H]3[C@H](O)[C@@H](O)C(O)O[C@@H]3CO)[C@@H]2O)(C(=O)O)C[C@@H]1O (stereo partly drawn) [α-2,3 Sialyllactose]		100%		
CC(=O)N[C@H]1[C@H]([C@H](O)[C@H](O)CN=[N+]=[N-])OC(C(=O)O)=C[C@@H]1O [9-azido-Neu5Ac2en, 5-acetamido-2,6-anhydro-9-azido-3,5,9-trideoxy-D-glycero-D-galacto-non-2-enonic acid]				Ki [4]: 50 µM; inhibition in words [5]: strongly inhibited; Ki ([6]; adenovirus transformed kidney cells, plasma membrane, previously reported data, unit from footnote c): 10 µM; inhibition in words ([6]; plasma membrane sialidase): strongly inhibited; inhibition in words (CHO cell sialidase [3]): moderately inhibited
Colominic Acid		4%	hydrolyzed but at substantially reduced rates	
II^3 NeuAc-GgOse3 Cer [GM2]	not substrates	NR		
IV^3 NeuAc, II^3 (NeuAc)2 -GgOse4 Cer [GT1b]	hydrolyzed at comparable rates	23%		
